Experimental data published in patent US9695155B2, “Herbicidal substituted pyrimidinyloxy benzene compounds” (E. I. DU PONT DE NEMOURS AND COMPANY, priority 2013, dated 2017).

Key:
velvetleaf [1] = assay: Test A postemergence; assay type: in vivo, Abutilon theophrasti; conditions: 0 to 100 scale where 0 is no effect and 100 is complete control; for Velvetleaf plant response rating: 125 g ai/ha; for Plant response rating, Velvetleaf: 500 g ai/ha
Method in brief: (§1)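 Greenhouse pot test, loam/sand soil. Formulation: non-phytotoxic solvent mix plus surfactant. Pre: directed spray onto soil after sowing. Post: plants at 1–2 leaf, 2–10 cm. Rated visually vs untreated controls at ~10 d, 0 (no effect) to 100 (complete control).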

wheat [2] = assay: Test A postemergence; assay type: in vivo, Triticum aestivum; conditions: 0 to 100 scale where 0 is no effect and 100 is complete control; for Wheat plant response rating: 125 g ai/ha; for Plant response rating, Wheat: 500 g ai/ha
Method in brief: as §1

corn [3] = assay: Test A preemergence; assay type: in vivo, Zea mays; conditions: for Corn plant response rating (0 to 100 scale): 125 g ai/ha; for Corn plant response rating: 500 g ai/ha, 0 to 100 scale where 0 is no effect and 100 is complete control
Method in brief: as §1

large (Lg) crabgrass [4] = assay: Test A preemergence; assay type: in vivo, Digitaria sanguinalis; conditions: for Crabgrass, Large plant response rating (0 to 100 scale): 125 g ai/ha; for Crabgrass, Large plant response rating: 500 g ai/ha, 0 to 100 scale where 0 is no effect and 100 is complete control
Method in brief: as §1

corn [5] = assay: Test A postemergence; assay type: in vivo, Zea mays; conditions: 0 to 100 scale where 0 is no effect and 100 is complete control; for Corn plant response rating: 125 g ai/ha; for Plant response rating, Corn: 500 g ai/ha
Method in brief: as §1

rice = assay: Test B flooded paddy test; assay type: in vivo, Oryza sativa; conditions: Flood, 250 g ai/ha; 0 to 100 scale where 0 is no effect and 100 is complete control
Method in brief: (§2)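 Visual ratings on a 0 to 100 scale, where 100 means complete control, compared treated plants with controls after 13 to 15 days in a greenhouse. Treatment went into paddy water 3 cm deep over the soil, applied to plants at the 2-leaf stage.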

giant foxtail [6] = assay: Test A postemergence; assay type: in vivo, Setaria faberii; conditions: 0 to 100 scale where 0 is no effect and 100 is complete control; for Foxtail, Giant plant response rating: 125 g ai/ha; for Plant response rating, Foxtail, Giant: 500 g ai/ha
Method in brief: as §1

barnyardgrass [7] = assay: Test A preemergence; assay type: in vivo, Echinochloa crus-galli; conditions: for Barnyardgrass plant response rating (0 to 100 scale, 0 is no effect, 100 is complete control): 125 g ai/ha; for Barnyardgrass plant response rating: 500 g ai/ha, 0 to 100 scale where 0 is no effect and 100 is complete control
Method in brief: as §1

sedge, umbrella = assay: Test B flooded paddy test; assay type: in vivo, Cyperus difformis; conditions: Flood, 250 g ai/ha; 0 to 100 scale where 0 is no effect and 100 is complete control
Method in brief: as §2

Heteranthera limosa = assay: Test B flooded paddy test; assay type: in vivo; conditions: Flood, 250 g ai/ha; 0 to 100 scale where 0 is no effect and 100 is complete control
Method in brief: as §2

morningglory [8] = assay: Test A preemergence; assay type: in vivo, Ipomoea spp.; conditions: for Morningglory plant response rating (0 to 100 scale): 125 g ai/ha; for Morningglory plant response rating: 500 g ai/ha, 0 to 100 scale where 0 is no effect and 100 is complete control
Method in brief: as §1

wheat [9] = assay: Test A preemergence; assay type: in vivo, Triticum aestivum; conditions: for Wheat plant response rating (0 to 100 scale): 125 g ai/ha; for Wheat plant response rating: 500 g ai/ha, 0 to 100 scale where 0 is no effect and 100 is complete control
Method in brief: as §1

pigweed [10] = assay: Test A postemergence; assay type: in vivo, Amaranthus retroflexus; conditions: 0 to 100 scale where 0 is no effect and 100 is complete control; for Pigweed plant response rating: 125 g ai/ha; for Plant response rating, Pigweed: 500 g ai/ha
Method in brief: as §1

pigweed [11] = assay: Test A preemergence; assay type: in vivo, Amaranthus retroflexus; conditions: for Pigweed plant response rating (0 to 100 scale): 125 g ai/ha; for Pigweed plant response rating: 500 g ai/ha, 0 to 100 scale where 0 is no effect and 100 is complete control
Method in brief: as §1

barnyardgrass [12] = assay: Test A postemergence; assay type: in vivo, Echinochloa crus-galli; conditions: 0 to 100 scale where 0 is no effect and 100 is complete control; for Barnyardgrass plant response rating: 125 g ai/ha; for Plant response rating, Barnyardgrass: 500 g ai/ha
Method in brief: as §1

barnyardgrass [13] = assay: Test B flooded paddy test; assay type: in vivo, Echinochloa crus-galli; conditions: Flood, 250 g ai/ha; 0 to 100 scale where 0 is no effect and 100 is complete control
Method in brief: as §2

giant foxtail [14] = assay: Test A preemergence; assay type: in vivo, Setaria faberii; conditions: for Foxtail, Giant plant response rating (0 to 100 scale): 125 g ai/ha; for Foxtail, Giant plant response rating: 500 g ai/ha, 0 to 100 scale where 0 is no effect and 100 is complete control
Method in brief: as §1

morningglory [15] = assay: Test A postemergence; assay type: in vivo, Ipomoea spp.; conditions: 0 to 100 scale where 0 is no effect and 100 is complete control; for Morningglory plant response rating: 125 g ai/ha; for Plant response rating, Morningglory: 500 g ai/ha
Method in brief: as §1

velvetleaf [16] = assay: Test A preemergence; assay type: in vivo, Abutilon theophrasti; conditions: for Velvetleaf plant response rating (0 to 100 scale): 125 g ai/ha; for Velvetleaf plant response rating: 500 g ai/ha, 0 to 100 scale where 0 is no effect and 100 is complete control
Method in brief: as §1

large (Lg) crabgrass [17] = assay: Test A postemergence; assay type: in vivo, Digitaria sanguinalis; conditions: 0 to 100 scale where 0 is no effect and 100 is complete control; for Crabgrass, Large plant response rating: 125 g ai/ha; for Plant response rating, Crabgrass, Large: 500 g ai/ha
Method in brief: as §1

Row | SMILES | Velvetleaf plant response rating (velvetleaf [1]) | Plant response rating, Velvetleaf (velvetleaf [1]) | Wheat plant response rating (wheat [2]) | Plant response rating, Wheat (wheat [2]) | Corn plant response rating (0 to 100 scale) (corn [3]) | Corn plant response rating (corn [3]) | Crabgrass, Large plant response rating (0 to 100 scale) (large (Lg) crabgrass [4]) | Crabgrass, Large plant response rating (large (Lg) crabgrass [4]) | Corn plant response rating (corn [5]) | Plant response rating, Corn (corn [5]) | Plant response rating, Rice (rice) | Foxtail, Giant plant response rating (giant foxtail [6]) | Plant response rating, Foxtail, Giant (giant foxtail [6]) | Barnyardgrass plant response rating (0 to 100 scale, 0 is no effect, 100 is complete control) (barnyardgrass [7]) | Barnyardgrass plant response rating (barnyardgrass [7]) | Plant response rating, Sedge, Umbrella (sedge, umbrella) | Plant response rating, Ducksalad (Heteranthera limosa) | Morningglory plant response rating (0 to 100 scale) (morningglory [8]) | Morningglory plant response rating (morningglory [8]) | Wheat plant response rating (0 to 100 scale) (wheat [9]) | further results
1 | N#Cc1cnc(Oc2cccc(C#N)c2-n2cc(Br)cn2)nc1 [Compound 214] | 0 | 0 | 0 | 0 | 0 | 0 | 0 | 0 | 0 | 0 | 0 | 0 | 0 | 0 | 0 | 0 | 0 | 0 | 0 | 0 | Wheat plant response rating (wheat [9]): 0; Pigweed plant response rating (pigweed [10]): 0; Plant response rating, Pigweed (pigweed [10]): 0; Pigweed plant response rating (0 to 100 scale) (pigweed [11]): 0; Pigweed plant response rating (pigweed [11]): 0; Barnyardgrass plant response rating (barnyardgrass [12]): 0; Plant response rating, Barnyardgrass (barnyardgrass [12]): 0; Plant response rating, Barnyardgrass (barnyardgrass [13]): 0; Foxtail, Giant plant response rating (0 to 100 scale) (giant foxtail [14]): 0; Foxtail, Giant plant response rating (giant foxtail [14]): 0; Morningglory plant response rating (morningglory [15]): 0; Plant response rating, Morningglory (morningglory [15]): 0; Velvetleaf plant response rating (0 to 100 scale) (velvetleaf [16]): 0; Velvetleaf plant response rating (velvetleaf [16]): 0; Crabgrass, Large plant response rating (large (Lg) crabgrass [17]): 0; Plant response rating, Crabgrass, Large (large (Lg) crabgrass [17]): 0
2 | C#Cc1cnc(Oc2cccc(C#N)c2-n2cc(Br)cn2)nc1 [Compound 215] | 40 | 50 | 0 | 0 | 0 | 0 | 20 | 80 | 0 | 20 | 0 | 0 | 10 | 0 | 10 | 0 | 0 | 0 | 0 | 0 | Wheat plant response rating (wheat [9]): 0; Pigweed plant response rating (pigweed [10]): 70; Plant response rating, Pigweed (pigweed [10]): 80; Pigweed plant response rating (0 to 100 scale) (pigweed [11]): 90; Pigweed plant response rating (pigweed [11]): 100; Barnyardgrass plant response rating (barnyardgrass [12]): 0; Plant response rating, Barnyardgrass (barnyardgrass [12]): 30; Plant response rating, Barnyardgrass (barnyardgrass [13]): 0; Foxtail, Giant plant response rating (0 to 100 scale) (giant foxtail [14]): 0; Foxtail, Giant plant response rating (giant foxtail [14]): 50; Morningglory plant response rating (morningglory [15]): 10; Plant response rating, Morningglory (morningglory [15]): 10; Velvetleaf plant response rating (0 to 100 scale) (velvetleaf [16]): 0; Velvetleaf plant response rating (velvetleaf [16]): 10; Crabgrass, Large plant response rating (large (Lg) crabgrass [17]): 10; Plant response rating, Crabgrass, Large (large (Lg) crabgrass [17]): 30
